# Results reported in ChEMBL document CHEMBL1201862, “PubChem BioAssay data set” (2004).
#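 Protocol summary: plate cells (96-well), add compound at 5 concentrations, incubate 48 h, interpolate endpoints linearly. GI50 = concentration required for 50% inhibition of growth.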 The source made the active and inactive calls. No stated cut-off is given here; in the data, active = GI50 up to about 1.1 µM and inactive = higher.
# Tests used:
# Assay in all cases: NCI anticancer screen, dose series, 48 h
# [1] = system: LOX IMVI
# [2] = system: SF-295
# [3] = system: A549
# [4] = system: KM12
# [5] = system: SK-MEL-28
# [6] = system: UO-31
# [7] = system: Malme-3M
# [8] = system: SF-539
# [9] = system: SW-620
# [10] = system: HCT-116
# [11] = system: NCI-H522
# [12] = system: SN12C
# [13] = system: SF-268
# [14] = system: K562
# [15] = system: HOP-62
# [16] = system: SK-MEL-5
# [17] = system: OVCAR-4
# [18] = system: UACC-62
# [19] = system: RPMI-8226
Compound,GI50 [1],GI50 [2],GI50 [3],GI50 [4],GI50 [5],GI50 [6],GI50 [7],GI50 [8],GI50 [9],GI50 [10],GI50 [11],GI50 [12],GI50 [13],GI50 [14],GI50 [15],GI50 [16],GI50 [17],GI50 [18],GI50 [19]
CCc1cccc(=O)c([O-])c1.CCc1cccc(=O)c([O-])c1.[Bi+3].[Cl-],7.53 µM (inactive),6.31 µM (inactive),8.97 µM (inactive),12.4 µM (inactive),5.14 µM (inactive),10 µM (inactive),1.79 µM (inactive),9.84 µM (inactive),3.23 µM (inactive),7.45 µM (inactive),1.79 µM (inactive),10.2 µM (inactive),5.21 µM (inactive),2.81 µM (inactive),11.6 µM (inactive),13.1 µM (inactive),13.6 µM (inactive),9.98 µM (inactive),
Brc1cc2c(cc1C1SCCS1)OCO2,81.7 µM (inactive),> 100 µM (inactive),> 100 µM (inactive),> 100 µM (inactive),> 100 µM (inactive),> 100 µM (inactive),> 100 µM (inactive),> 100 µM (inactive),> 100 µM (inactive),> 100 µM (inactive),> 100 µM (inactive),,> 100 µM (inactive),59.2 µM (inactive),> 100 µM (inactive),> 100 µM (inactive),> 100 µM (inactive),> 100 µM (inactive),89.5 µM (inactive)
CC1=CP(=O)(OC(C)C)CC(C)=C1Cl (stereo not drawn),> 100 µM (inactive),> 100 µM (inactive),> 100 µM (inactive),> 100 µM (inactive),> 100 µM (inactive),> 100 µM (inactive),> 100 µM (inactive),95.1 µM (inactive),70.5 µM (inactive),> 100 µM (inactive),52.6 µM (inactive),> 100 µM (inactive),82.6 µM (inactive),> 100 µM (inactive),> 100 µM (inactive),> 100 µM (inactive),,> 100 µM (inactive),94.8 µM (inactive)
CCOc1ccccc1NC(=O)CC1SC(Nc2ccc([N+](=O)[O-])cc2)=NC1=O (stereo not drawn),18.5 µM (inactive),18 µM (inactive),18.5 µM (inactive),18.7 µM (inactive),25.3 µM (inactive),17.2 µM (inactive),22.5 µM (inactive),,23.1 µM (inactive),15.3 µM (inactive),,20.4 µM (inactive),29.9 µM (inactive),,18.5 µM (inactive),16 µM (inactive),11.6 µM (inactive),17.2 µM (inactive),6.95 µM (inactive)
CCOC(=O)C(=O)Nc1ccccc1C(C)C,,> 100 µM (inactive),> 100 µM (inactive),> 100 µM (inactive),> 100 µM (inactive),> 100 µM (inactive),> 100 µM (inactive),> 100 µM (inactive),> 100 µM (inactive),> 100 µM (inactive),> 100 µM (inactive),> 100 µM (inactive),> 100 µM (inactive),> 100 µM (inactive),> 100 µM (inactive),> 100 µM (inactive),> 100 µM (inactive),> 100 µM (inactive),> 100 µM (inactive)
COC(=O)N1C=CC2=C(C)C3Nc4ccccc4C3C(C)=C2C1 (stereo not drawn),2.23 µM (inactive),1.64 µM (inactive),1.69 µM (inactive),,7.29 µM (inactive),1.29 µM (inactive),3.03 µM (inactive),4.2 µM (inactive),1.01 µM (active),0.643 µM (active),1.49 µM (inactive),,1.94 µM (inactive),2.09 µM (inactive),1.73 µM (inactive),3.15 µM (inactive),1.34 µM (inactive),1.72 µM (inactive),0.804 µM (active)
O=C1OC(c2ccccc2)=N/C1=C\c1ccc(F)cc1,38.9 µM (inactive),,> 100 µM (inactive),> 100 µM (inactive),> 100 µM (inactive),> 100 µM (inactive),,,> 100 µM (inactive),> 100 µM (inactive),40.5 µM (inactive),> 100 µM (inactive),66.8 µM (inactive),> 100 µM (inactive),42.4 µM (inactive),80.5 µM (inactive),97.3 µM (inactive),> 100 µM (inactive),38.9 µM (inactive)
COc1ccc2cccc(C(=O)c3ccc(C)c4c3CCC4)c2c1,19.5 µM (inactive),53.6 µM (inactive),49.9 µM (inactive),26.1 µM (inactive),> 100 µM (inactive),30.2 µM (inactive),29.2 µM (inactive),,41.8 µM (inactive),37.7 µM (inactive),22.5 µM (inactive),71.9 µM (inactive),> 100 µM (inactive),30.8 µM (inactive),24.9 µM (inactive),19.5 µM (inactive),85.5 µM (inactive),25.4 µM (inactive),
